The subject of the test is E. coli 31. Nature of the test: In vitro antibacterial activity, two-fold agar-plate dilution method (MIC). Type of test: cell-based. As to conditions: Escherichia coli, 10^6 viable cells per ml, heart infusion agar, 37° C., 20 hours, read-out: MIC (minimal inhibitory concentration). As to the method: Now in order to show the utility of the object compound (I), the test data on MIC (minimal inhibitory concentration) of a representative compound of the compound (I) are shown in the following.
In vitro antibacterial activity was determined by the two-fold agar-plate dilution method as described below.
One loopful of an overnight culture of each test strain in Trypticase-soy broth (10^6 viable cells per ml) was streaked on heart infusion agar (HI-agar) containing graded concentrations of representative test compound, and the minimal inhibitory concentration (MIC) was expressed in terms of μg/ml after incubation at 37° C. for 20 hours.

Results on one molecule are retold here after patent US5215982A, “Cephem compounds” (Fujisawa Pharmaceutical Co., Ltd., priority 1989, dated 1993).

Turning to `CON=C(C(=O)NC1C(=O)N2C(C(=O)[O-])=C(C[n+]3ccc4[nH]ccn43)CSC12)c1nsc(N)n1` (stereo not drawn) [Test Compound (1), 7β-[2-(5-Amino-1,2,4-thiadiazol-3-yl)-2-methoxyiminoacetamido]-3-[5-(1H-imidazo[1,2-b]pyrazolio)]methyl-3-cephem-4-carboxylate (syn isomer)], the MIC is ≤ 0.025 µg/mL.
